Experiments:
[1] = system: astrocytes derived from cerebral cortex of rats; test: differentiation test of astrocytes derived from cerebral cortex of rats; assay type: cell-based, rats of Wistar strain; settings: for positive cell numbers per visual field stained by an anti-βIII-tubulin antibody: differentiated seven days, no compound-added group 93±10.9
Experimental: Cerebrum was excised from newly-born rats of Wistar strain and, after removal of meninx under a stereoscopic microscope, it was ground with a frost part of a slide glass with frost in an ice-cooled DMEM medium to prepare a suspension. Centrifugal separation was conducted at 100×g for 3 minutes and the precipitate was suspended in a 10% bovine fetal serum-DMEM medium and sown in a 75-cm^2 flask. After two days from the start of culturing, cell purification was conducted. On the 19th day from the start of the culturing, astrocytes were recovered using 0.05% trypsin/EDTA and the cells were suspended again using a differentiation medium (a DMEM/F12 medium (Gibco) containing N2 additive (N2 Plus Supplement; R&D Systems) and 1% fetal bovine serum (manufactured by Dainippon Pharmaceutical). That was sown on a chamber slide and, on the next day, the culturing solution was exchanged to a differentiated medium (a DMEM/F12 medium comprising N2 additive, antibiotic and 1% fetal bovine serum) containing a test compound. After differentiating for seven days, fixation was conducted using 4% paraformaldehyde and the following immunostaining was conducted. With regard to nerve cells prepared by differentiation of astrocytes derived from cerebral cortex of rats, their differentiation stage was confirmed by means of immunostaining. Incidentally, anti-βIII-tubulin antibody and anti-doublecortin antibody were used for confirmation of young nerve cells; anti-MAP2 antibody, anti-NeuN antibody and anti-NSE antibody were used for confirmation of mature nerve cells; and anti-GABA antibody was used for confirmation of functional nerve cells.

sciatic nerve = settings: mature rat, axon of sciatic nerve cut; Brain Research 975, 229-236 (2003); cited from earlier work
[2] = dog, in vivo, 100 mg/kg
Source text: Toxicity of the compound of the present invention is sufficiently low and has been confirmed to be sufficiently safe for using as a medicament.

[3] = system: four-vein ligated (4VO) rat model; test: 4VO rat model: histological observation (Nissl-stained specimen), hippocampus CA1 nerve cell numbers; assay type: in vivo, rat of Wistar strain; settings: 4VO rats, 1 mg/kg oral
Experimental: (§1) A four-vein ligated (4VO) rat model was prepared by a partially modified method by Prusinery, et al. (J. Cereb. Blood Flow Metab., 16, 973-980 […]). Thus, vertebral arteries on both sides of male rat of Wistar strain were permanently obstructed and, on the next day, whole carotid artery was exposed and was temporally obstructed for 10 minutes using a clip. Rats where no response was noted immediately after obstruction of whole carotid arteries on both sides and forward-facing response disappeared were used for the experiment.
A four-vein ligated (4VO) rat model was prepared according to a method mentioned in Example 1-A-1 and subjected to the following test. […]
With regard to the specimens for histopathological test, three kinds of specimens, i.e. (1) Nissl-stained specimen (a site of 5.7 mm from interaural line), (2) specimen stained with hematoxylin-eosin and (3) unstained specimen (thickness: 10 μm) were prepared for brain tissue sample from one animal. Among them, with regard to the Nissl-stained specimen, right and left hippocampus CA1 nerve cell layer lengths and nerve cell numbers were measured by using Image Analyzer (MCID Elite 7.0 Rev.1.0) and numbers per unit length (mm) were calculated to conduct a histological evaluation.

[4] = system: four-vein ligated (4VO) rat model; test: 4VO rat model: water maze learning test; assay type: in vivo, rat of Wistar strain; settings: 4VO rats; for successful times compared with the control group (χ2 test): fourth session, p<0.05
Experimental: as §1
A four-vein ligated (4VO) rat model was prepared according to a method mentioned in Example 1-A-1 and subjected to the following test.
In the water maze learning test, a black circular pool (manufactured by Neuroscience) of 150 cm diameter and 50 cm height was used. The pool was filled with tap water of about 23° C. to a height of about 30 cm (platform surface was about 1 cm beneath the water surface). The platform (made of colorless and transparent acrylate; circular shape having 10 cm diameter) which was to be a goal was placed in a distance of about 35 cm from the inner wall of the pool. During the test period, positions of things which were hints for recognition of space such as racks, illumination instruments and persons who conducted the experiments were made constant and illumination level was made constant as well.
Rats on the third day after completion of repetitive administrations were allowed to stand at a starting position and the time until they climbed up to the platform (escape latency (seconds)) was measured. Maximum swimming time for climbing up to the platform was made 90 seconds and, when a rat climbed up to the plant form, it was allowed to stand there for about 30 seconds and then returned to a cage. When a rat was unable to climb up to the platform within a measuring time of 90 seconds, the rat was taken out from water, transferred onto the platform, allowed to stand there for about 30 seconds and returned to the cage. Incidentally, the escape latency at that time was counted as 90 seconds. Interval between trials was made about 30 minutes, four trials were conducted a day and they were defined as one session. Such a session was conducted for continued four days and (1) escape latency and (2) successful times (times of being able to reach the platform during four trials) were evaluated.

[5] = system: nerve stem cells derived from striatum of a rat; test: differentiation test of stem cells derived from fetal brain of rats; assay type: cell-based, rat of Wistar strain; settings: 30 μmol/L
Experimental: Fetus was taken out from a pregnant rat of Wistar strain and striatum was excised from brain of the fetus. Cells were dispersed by means of pipetting and incubated for six to seven days in a growth medium (a DMEM/F12 medium (manufactured by Gibco) containing N2 additive (N2 Plus Supplement; R&D Systems), antibiotics, basic fibroblast growth factor (20 ng/mL bFGF; manufactured by R&D Systems) and epithelial cell growth factor (20 ng/mL EGF; manufactured by R&D Systems). The resulting neurospheres were recovered, cells were dispersed by means of pipetting and culturing was conducted for six to seven days more using a growth medium. Neurospheres which were produced again were recovered and, after cells were dispersed, they were cultured on a chamber slide subjected to a poly-L-ornithine coating. After incubating for 24 hours, exchange to a differentiated medium comprising a test compound (a DMEM/F12 medium comprising N2 additive, antibiotic and 1% fetal bovine serum) was conducted. After differentiating for seven days, fixation was conducted with 4% paraformaldehyde and a immunostaining was conducted using a mouse anti-βIII-tubulin antibody (second antibody: FITC-labeled anti-mouse IgG antibody) which is to be an index for differentiation from nerve stem cells to nerve cells).
For example, when 30 μmol/L of (2R)-2-propyloctanoic acid was used, the cell numbers in the no compound-added group were 8±1.3 (in eight visual fields) while those in the group to which the compound was added were 31±4.6 (in eight visual fields).
With regard to the above nerve cells prepared by differentiation of nerve stem cells derived from striatum of rats, their differentiation stage was confirmed by means of immunostaining. Incidentally, for the confirmation of mature nerve cells, anti-MAP2 antibody was used while, for the confirmation of functional nerve cells, anti-GABA antibody was used.

[6] = system: four-vein ligated (4VO) rat model; test: 4VO rat model: BrdU and NeuN double immunostaining, hippocampus CA1 region; assay type: in vivo, rat of Wistar strain; settings: 4VO rats, 10 mg/kg oral once daily for 40 days from 8th day after 4VO, n=13
Experimental: as §1
Evaluation of nerve cell regeneration was conducted by preparing brain tissue sample by Nissl staining and counting nerve cell numbers in right and left hippocampus CA1 regions.
Confirmation of the fact that […] nerve cells increased in Example 1-A-2-1 were regenerated nerve cells was conducted by preparing a brain tissue sample immunostained with BrdU and NeuN and counting nerve cell numbers which were positive to double staining in right and left hippocampus CA1 region. […] Nerve cell numbers which were positive to double staining were calculated as number per unit length (mm) using nerve cell layer length of the hippocampus CA1 region and nerve cell numbers which were positive to double staining.

CCCC(CCC)C(=O)O [2-propylpentanoic acid]
positive cell numbers per visual field stained by an anti-βIII-tubulin antibody ([1]; 300 μmol/L): 174.8±7.8 | axon elongation and recovery of kinetic function (sciatic nerve): the axon is elongated and kinetic function is recovered

CCCCCC[C@@H](CCC)C(=O)O [(2R)-2-propyloctanoic acid]
dead cases [2]: no dead case was noted | positive cell numbers per visual field stained by an anti-βIII-tubulin antibody ([1]; 30 μmol/L): 177±11.8 | positive cell numbers stained by an anti-GABA antibody ([1]; 30 μmol/L, no compound-added group 20±1.0): 60±8.8 | positive cell numbers stained by an anti-MAP2 antibody ([1]; 30 μmol/L, no compound-added group 50±7.4): 104±10.3 | positive cell numbers stained by an anti-doublecortin antibody ([1]; 30 μmol/L, no compound-added group 55±5.7): 168±16.6 | positive cell numbers stained by an anti-NeuN antibody ([1]; 30 μmol/L, no compound-added group 106): 199 | positive cell numbers stained by an anti-NSE antibody ([1]; 30 μmol/L, no compound-added group 108): 166 | positive cell numbers per visual field stained by an anti-βIII-tubulin antibody ([1]; 100 μmol/L): 230±11.0 | Nerve cell density, hippocampus CA1 region [3]: 45.0 ± 5.6 cells/mm | Escape latency ([4]; 1 mg/kg oral, session 1): 68.2 ± 3.5 s | Escape latency ([4]; 1 mg/kg oral, session 2): 61.8 ± 4.4 s | Escape latency ([4]; 1 mg/kg oral, session 3): 52.5 ± 6.9 s | Escape latency ([4]; 1 mg/kg oral, session 4): 46.9 ± 7.6 s | successful times compared with the control group (χ2 test) ([4]; 3 mg/kg oral): significant difference | Escape latency ([4]; 3 mg/kg oral, session 1): 63.2 ± 3.8 s | Escape latency ([4]; 3 mg/kg oral, session 2): 48.7 ± 5.5 s | Escape latency ([4]; 3 mg/kg oral, session 3): 42.8 ± 6.4 s | successful times compared with the control group (χ2 test) ([4]; 10 mg/kg oral): significant difference | Escape latency ([4]; 10 mg/kg oral, session 1): 66.8 ± 3.7 s | Escape latency ([4]; 10 mg/kg oral, session 2): 44.5 ± 4.5 s | Escape latency ([4]; 10 mg/kg oral, session 3): 41.4 ± 5.2 s | βIII-tubulin-positive (Tuj1+) cell numbers per visual field ([5]; differentiated seven days, eight visual fields, 100 magnifications, no compound-added group 8±1.3): 31±4.6 | positive cell numbers per visual field stained using an anti-GABA antibody ([5]; no compound-added group 19±2.7): 101±9.5 | positive cell numbers per visual field stained using an anti-MAP2 antibody ([5]; no compound-added group 34±0.9): 50±7.4 | cells positive to double staining (anti-BrdU and anti-NeuN) per mm, hippocampus CA1 region [6]: 5.7±1.2 cells/mm

— patent publication US20070043114A1, “Nerve regeneration promoters” (priority 2003, published 2007)
